{"source": "paper PMC6273328", "about": "“Simultaneous Determination of Purpurin, Munjistin and Mollugin in Rat Plasma by Ultra High Performance Liquid Chromatography-Tandem Mass Spectrometry: Application to a Pharmacokinetic Study after Oral Administration of Rubia cordifolia L. Extract” (Molecules, 2016)", "key": {"[1]": {"test": "Pharmacokinetic study in rats after oral administration of R. cordifolia extract (UHPLC-MS/MS of plasma)", "type": "in vivo, Sprague-Dawley (SD) rats", "details": "male, Sprague-Dawley", "protocol": "The UHPLC-MS/MS method described herein was applied to investigate the pharmacokinetics of the three constituents in R. cordifolia after a single oral administration of 0.82 g/kg of extract (equivalent to 6.3 μg/g for mollugin, 1.3 μg/g for munjistin, and 0.68 μg/g for purpurin) to twelve rats. We determined the oral dosage for the rats corresponding to the human dosage recommended in the Chinese Pharmacopoeia (2015 edition). The human dosage of R. cordifolia in the Chinese Pharmacopoeia is 10 g/day, so we calculated the final oral dosage as 0.82 g/kg in rats based on the Meeh-Rubn method.\nTwelve male Sprague-Dawley (SD) rats (body weight 220 ± 20 g) were obtained from the experimental animal center of Harbin Medical University and adapted to a constant-temperature (25 °C) room. The animal handling procedures were approved by the institutional ethics committee and conformed to the principles of the International Guide for the Care and Use of Laboratory Animals. Before the experiment, the rats were fasted for 12 h and had access to water during the research period. Blood (0.4 mL) was collected from the orbital venous plexus at several specific time points (0, 0.33, 0.67, 1, 1.3, 1.67, 2, 2.5, 3, 4, 6, 8, 12 and 24 h) after the oral administration of R. cordifolia (0.82 g/kg). After centrifugation at 12000 rpm for 5 min, the plasma was collected immediately and stored at −20 °C until sample analysis.\nBefore the experiment, the plasma samples were thawed naturally at room temperature. As a liquid-liquid extraction method, 100 μL of methanol and 50 μL of I.S. (2000 ng/mL) were added to a rat plasma sample (100 μL), and then the content was mixed by a vortex mixer for 30 s. After this step, a 3 mL aliquot of ethyl acetate (extraction agent) was accurately added and the mixture vortexed for 60 s. Then the samples were put into a centrifuge. The organic supernatant was pipetted into clean glass tubes individually after centrifugation 4000 rpm for 5 min. The upper organic layer was removed and evaporated to dryness at 40 °C under a stream of nitrogen. The residue was then reconstituted with 100 μL of mobile phase (5 mM ammonium acetate in water/methanol, 10:90, v/v), vortexed for 30 s and filtered by a 0.22 μm membrane. A 5 μL aliquot of the solution was injected into the UHPLC-MS/MS system for analysis.\nNoncompartmental methods were applied to calculate the following pharmacokinetic parameters. The peak plasma concentration (Cmax) and the time of maximum plasma concentration (Tmax) were observed directly from the measured data. The elimination rate constant (Ke) was calculated using the linear regression of the terminal points in a semi-log plot of the plasma concentration against time. The elimination half-life (t1/2) was calculated using the formula: t1/2 = 0.693/Ke\nThe area under the peak plasma concentration-time curve (AUC0→t) to the last measurable plasma concentration (Ct) was estimated using the linear trapezoidal rule. The area under the plasma concentration-time curve to time infinity (AUC0→∞) was calculated as following: AUC0→∞ = AUC0-t + Ct/Ke"}, "[2]": {"test": "Stability of the analytes in rat plasma (QC samples)", "type": "in vitro ADME", "details": "n = 6; for Stability (% RE) Post-Preparative: extracted plasma samples, 12 h at 4 °C after preparation; for Stability (% RE) Short-Term / Stability (% RE) Long-Term / Stability (% RE) Three Freeze-Thaw: rat plasma; for Stability (% RE) Short-Term: 4 h at ambient temperature; for Stability (% RE) Long-Term: storage for 2 weeks at −20 °C; for Stability (% RE) Three Freeze-Thaw: three freeze (−20 °C) and thaw cycles", "protocol": "To study the stability, QC samples of the three analytes at three QC levels (LQC, MQC, and HQC) were added into drug-free plasma samples and each levels contained six replicates. Four different manipulations were designed to assess the stability involving short-term stability (storage for 4 h at ambient temperature), long-term stability (storage for 2 weeks at −20 °C), freeze-thaw stability (three freeze at −20 °C and thaw cycles), and post-preparative stability (storage for 12 h after sample preparation at 4 °C). A series of concentrations of stability testing QC samples was obtained by the calibration curve which was established from freshly prepared standard samples."}, "[3]": {"details": "medium QC (26.4/51.5/245 ng/mL)"}, "[4]": {"details": "high QC (211/412/1960 ng/mL purpurin/munjistin/mollugin)"}, "[5]": {"details": "low QC (0.528/1.03/4.90 ng/mL purpurin/munjistin/mollugin)"}, "[6]": {"details": "medium QC (26.4/51.5/245 ng/mL purpurin/munjistin/mollugin)"}}, "note": "Like-named read-outs stand apart in the source and are kept apart here.", "data": [{"smiles": "COC(=O)c1c2c(c3ccccc3c1O)OC(C)(C)C=C2", "note": "[Mollugin, mollugin]", "values": [{"measurement": "half-life", "setting": "[1]; rat plasma, single oral 0.82 g/kg R. cordifolia extract, mean ± SD, n = 12, non-compartment model, read-out: t1/2 (converted)", "value": "9.02 ± 2.14", "unit": "h"}, {"measurement": "AUC(0-t)", "setting": "[1]; rat plasma, single oral 0.82 g/kg R. cordifolia extract, mean ± SD, n = 12, read-out: AUC0→t", "value": "232 ± 57.6", "unit": "ng·h/mL"}, {"measurement": "AUC(0-inf)", "setting": "[1]; rat plasma, single oral 0.82 g/kg R. cordifolia extract, mean ± SD, n = 12, read-out: AUC0→∞", "value": "296 ± 40.9", "unit": "ng·h/mL"}, {"measurement": "Cmax", "setting": "[1]; rat plasma, single oral 0.82 g/kg R. cordifolia extract, mean ± SD, n = 12, read-out: Cmax", "value": "52.1 ± 6.71", "unit": "ng/mL"}, {"measurement": "Tmax", "setting": "[1]; rat plasma, single oral 0.82 g/kg R. cordifolia extract, mean ± SD, n = 12, read-out: Tmax", "value": "1.99 ± 0.21", "unit": "h"}, {"measurement": "Stability (% RE) Post-Preparative", "setting": "[2]; high QC (211/412/1960 ng/mL)", "value": 14.38, "unit": "% RE"}, {"measurement": "Stability (% RE) Post-Preparative", "setting": "[2]; low QC (0.528/1.03/4.90 ng/mL)", "value": 11.15, "unit": "% RE"}, {"measurement": "Stability (% RE) Post-Preparative", "setting": "[2]; [3]", "value": 0.65, "unit": "% RE"}, {"measurement": "Stability (% RE) Short-Term", "setting": "[2]; high QC (211/412/1960 ng/mL)", "value": "−8.69", "unit": "% RE"}, {"measurement": "Stability (% RE) Short-Term", "setting": "[2]; low QC (0.528/1.03/4.90 ng/mL)", "value": 9.90, "unit": "% RE"}, {"measurement": "Stability (% RE) Short-Term", "setting": "[2]; [3]", "value": "−4.35", "unit": "% RE"}, {"measurement": "Stability (% RE) Long-Term", "setting": "[2]; high QC (211/412/1960 ng/mL)", "value": "−8.55", "unit": "% RE"}, {"measurement": "Stability (% RE) Long-Term", "setting": "[2]; low QC (0.528/1.03/4.90 ng/mL)", "value": 4.57, "unit": "% RE"}, {"measurement": "Stability (% RE) Long-Term", "setting": "[2]; [3]", "value": "−0.17", "unit": "% RE"}, {"measurement": "Stability (% RE) Three Freeze-Thaw", "setting": "[2]; [4]", "value": "−13.17", "unit": "% RE"}, {"measurement": "Stability (% RE) Three Freeze-Thaw", "setting": "[2]; [5]", "value": 10.26, "unit": "% RE"}, {"measurement": "Stability (% RE) Three Freeze-Thaw", "setting": "[2]; [6]", "value": 8.78, "unit": "% RE"}]}, {"smiles": "O=C1c2ccccc2C(=O)c2c1cc(O)c(C(=O)O)c2O", "note": "[Munjistin, munjistin]", "values": [{"measurement": "AUC(0-inf)", "setting": "[1]; rat, in vivo, po, 0.82 g/kg", "value": "136 ± 21.2", "unit": "ng·h/mL"}, {"measurement": "AUC(0-t)", "setting": "[1]; rat, in vivo, po, 0.82 g/kg", "value": "110 ± 20.1", "unit": "ng·h/mL"}, {"measurement": "Cmax", "setting": "[1]; rat, in vivo, po, 0.82 g/kg", "value": "26.1 ± 6.59", "unit": "ng/mL"}, {"measurement": "Tmax", "setting": "[1]; rat, in vivo, po, 0.82 g/kg", "value": "2.58 ± 0.19", "unit": "h"}, {"measurement": "half-life", "setting": "[1]; rat, in vivo, po, 0.82 g/kg", "value": "9.22 ± 2.75", "unit": "h"}, {"measurement": "Stability (% RE) Post-Preparative", "setting": "[2]; high QC (211/412/1960 ng/mL)", "value": "−10.15", "unit": "% RE"}, {"measurement": "Stability (% RE) Post-Preparative", "setting": "[2]; low QC (0.528/1.03/4.90 ng/mL)", "value": 11.15, "unit": "% RE"}, {"measurement": "Stability (% RE) Post-Preparative", "setting": "[2]; [3]", "value": 7.04, "unit": "% RE"}, {"measurement": "Stability (% RE) Short-Term", "setting": "[2]; high QC (211/412/1960 ng/mL)", "value": 7.31, "unit": "% RE"}, {"measurement": "Stability (% RE) Short-Term", "setting": "[2]; low QC (0.528/1.03/4.90 ng/mL)", "value": 11.56, "unit": "% RE"}, {"measurement": "Stability (% RE) Short-Term", "setting": "[2]; [3]", "value": 6.73, "unit": "% RE"}, {"measurement": "Stability (% RE) Long-Term", "setting": "[2]; high QC (211/412/1960 ng/mL)", "value": "−0.77", "unit": "% RE"}, {"measurement": "Stability (% RE) Long-Term", "setting": "[2]; low QC (0.528/1.03/4.90 ng/mL)", "value": 13.97, "unit": "% RE"}, {"measurement": "Stability (% RE) Long-Term", "setting": "[2]; [3]", "value": 5.56, "unit": "% RE"}, {"measurement": "Stability (% RE) Three Freeze-Thaw", "setting": "[2]; [4]", "value": "−2.82", "unit": "% RE"}, {"measurement": "Stability (% RE) Three Freeze-Thaw", "setting": "[2]; [5]", "value": 9.04, "unit": "% RE"}, {"measurement": "Stability (% RE) Three Freeze-Thaw", "setting": "[2]; [6]", "value": 9.46, "unit": "% RE"}]}, {"smiles": "O=C1c2ccccc2C(=O)c2c(O)c(O)cc(O)c21", "note": "[Purpurin, purpurin]", "values": [{"measurement": "AUC(0-inf)", "setting": "[1]; rat, in vivo, po, 0.82 g/kg", "value": "243 ± 35.9", "unit": "ng·h/mL"}, {"measurement": "AUC(0-t)", "setting": "[1]; rat, in vivo, po, 0.82 g/kg", "value": "206 ± 36.1", "unit": "ng·h/mL"}, {"measurement": "Cmax", "setting": "[1]; rat, in vivo, po, 0.82 g/kg", "value": "70.1 ± 11.8", "unit": "ng/mL"}, {"measurement": "Tmax", "setting": "[1]; rat, in vivo, po, 0.82 g/kg", "value": "1.61 ± 0.24", "unit": "h"}, {"measurement": "half-life", "setting": "[1]; rat, in vivo, po, 0.82 g/kg", "value": "9.52 ± 2.68", "unit": "h"}, {"measurement": "Stability (% RE) Post-Preparative", "setting": "[2]; high QC (211/412/1960 ng/mL)", "value": 13.68, "unit": "% RE"}, {"measurement": "Stability (% RE) Post-Preparative", "setting": "[2]; low QC (0.528/1.03/4.90 ng/mL)", "value": "−14.02", "unit": "% RE"}, {"measurement": "Stability (% RE) Post-Preparative", "setting": "[2]; [3]", "value": "−2.00", "unit": "% RE"}, {"measurement": "Stability (% RE) Short-Term", "setting": "[2]; high QC (211/412/1960 ng/mL)", "value": 14.76, "unit": "% RE"}, {"measurement": "Stability (% RE) Short-Term", "setting": "[2]; low QC (0.528/1.03/4.90 ng/mL)", "value": "−13.38", "unit": "% RE"}, {"measurement": "Stability (% RE) Short-Term", "setting": "[2]; [3]", "value": "−5.35", "unit": "% RE"}, {"measurement": "Stability (% RE) Long-Term", "setting": "[2]; high QC (211/412/1960 ng/mL)", "value": 12.08, "unit": "% RE"}, {"measurement": "Stability (% RE) Long-Term", "setting": "[2]; low QC (0.528/1.03/4.90 ng/mL)", "value": "−2.59", "unit": "% RE"}, {"measurement": "Stability (% RE) Long-Term", "setting": "[2]; [3]", "value": "−2.68", "unit": "% RE"}, {"measurement": "Stability (% RE) Three Freeze-Thaw", "setting": "[2]; [4]", "value": 14.76, "unit": "% RE"}, {"measurement": "Stability (% RE) Three Freeze-Thaw", "setting": "[2]; [5]", "value": 1.92, "unit": "% RE"}, {"measurement": "Stability (% RE) Three Freeze-Thaw", "setting": "[2]; [6]", "value": "−5.35", "unit": "% RE"}]}]}
